For one test, the target named is Cdk6-cyclin D1 (Homo sapiens, UniProt Q00534). In words: Kinase profiling (Millipore), Cdk6-cyclin D1. It is filed as biochemical. As for the experimental part:
(§1) The in vitro kinase assays for testing against Cdk4-cyclin D1, Cdk2-cyclin A, Cdk1-cyclin B1 and Cdk9-cyclin T1 were performed in-house. The methodology and results have been reported previously.[20], [30], [31], [32], [45] The kinase profiling for 58 representative kinases was carrried out commercially at Millipore Bioscience Division, Livingston, UK.

A further test addresses Plk3 (Homo sapiens, UniProt Q9H4B4). The test can be described thus: Kinase profiling (Millipore), Plk3. It is filed as biochemical. The protocol:
as §1

For a further test, the target named is PKCα (Homo sapiens, UniProt P17252). The test can be described thus: Kinase profiling (Millipore), PKCα. It counts as biochemical. As for the experimental part: as §1
For test [1], the system named is BNL SV A.8 (mouse hepatic; SV40-mediated transformed cells). The test can be described thus: Cell proliferation (MTT) assay, BNL SV A.8. It counts as cell-based. As for the experimental part:
All 10 human cancer cell lines were maintained at 37 °C in 5% CO2 in RPMI-1640 medium, supplemented with 10% foetal calf serum and 100 μg/ml normocin. The 10 cancer cell lines used for screening were all obtained from ATCC (Manassas, VA, USA); they were the NSCLC (a form of cancer that is resistant to chemotherapy) lines: NCI-H460 (pRb^+, p53^+), A549 (pRb^+, p53^+), Calu-1 (pRb^+, p53-null), NCI-H1299 (pRb^+, p53-null), NCI-H358 (pRb-null, p53-null); the colon cancer line LS174T (pRb^+, p53^+); the prostate cancer line PC-3 (pRb^+, p53-null); the pancreatic cancer line MiaPaca (pRb^+, p53-mutant). The genotypes within brackets indicate the status of the tumour suppressor proteins pRb and p53. The mouse embryonic normal hepatic cell line (BNL CL2) and its SV40 large T-antigen-transformed counterpart cell line (BNL SV A.8) were also purchased from ATCC. The large T-antigen inactivates the tumour suppressor proteins p53 and pRb. The detailed procedure of cell proliferation (MTT) assay and IC50 determination was described previously.[32]

In a further test the test system is Calu-1 cells. In words: Cell cycle analysis, Calu-1. It counts as cell-based, human. The conditions noted are these: p53-null, non-functional mitotic-spindle checkpoint. As for the experimental part:
The untreated (control) and treated (with test compounds) cells were harvested by trypsinization, washed once with PBS and then fixed in 70% chilled (−20 °C) ethanol for minimum 1 h. After the fixation step, cells were centrifuged for 5 min at 3000 × g at room temperature, and the pellet was suspended in PBS containing 50 μg/ml propidium iodide (Sigma-Aldrich, Dorset, UK; cat. no. P-4170) and 0.5 mg/ml DNase-free ribonuclease (Sigma-Aldrich; cat. no. R-5503). The cells were stained for 1 h in the dark at 4 °C. Cell cycle analysis was performed on the Beckman Coulter (Epics Altra) fluorescence-activated cell sorter (Beckman Coulter UK Ltd, Buckinghamshire, UK). To gate all the events that represent single cells, and not cell doublets or cell clumps, the following analyses were performed on the samples. Cytograms of propidium iodide fluorescence peak signal versus integrated fluorescence or the linear signal were plotted. All data points on the straight line were isolated in a single gate and the gated data was further used for plotting a histogram that represents a complete cell cycle. The total number of events was not allowed to exceed 200 events per s. Data acquisition was stopped after a minimum of 10 000 events had been collected.
Fig. S4. Cell cycle analysis of calu-1 cells upon BPT treatment. […]

Test [2] relates to p53+ A549 and LS174T cells. The test can be described thus: Western blot of cell cycle proteins in p53+ cells. It counts as cell-based, human. The conditions noted are these: IC50 concentration, 24 h. The protocol:
A549, LS174T and MiaPaCa cells were seeded in 25 cm^2 tissue culture flasks in the complete growth medium. […] Cells were harvested by trypsinization, washed in ice-cold PBS and then lysed in buffer (Sigma-Aldrich; cat. no. C-2978) containing protease inhibitor cocktail (Sigma-Aldrich; cat. no. P8340). The lysates were centrifuged at 14 000 r.p.m. (revolutions per minute) for 10 min at 4 °C and the total protein concentrations were estimated in the clear supernatants using the Bradford method. Equal amounts of protein (40 μg) were loaded and electrophoresed on 10% SDS-polyacrylamide gels and blotted on Immobilon-P Transfer Membrane (Millipore; cat. no.IPVH20200). The blots were probed with respective primary antibodies (at 4 °C, overnight) at the following dilutions: cdc2 (New England Biolabs, Hitchin, UK; cat. no. 9110) at 1 : 1000 to detect Cdk1; cyclin B1 (CRUK, London, UK; cat. no. V152) at 1 : 1500 dilution to detect cyclin B1; Pab 1801 (Santa Cruz Biotechnology, Heidelberg, Germany; cat. no. sc-98) at 1 : 500 dilution to detect p53; N-20 (Santa Cruz Biotechnology; cat. no. sc-469) at 1 : 500 dilution to detect p21; C-19 (Santa Cruz Biotechnology; cat. no. sc-528) at 1 : 250 dilution to detect p27; AC-40 (Sigma-Aldrich; cat. no. A4700) at 1 : 2000 dilution to detect actin. Appropriate secondary antibodies conjugated with horseradish peroxidase were used and the protein bands were visualized by chemiluminescence using the ECL Kit (Santa Cruz Biotechnology; cat. no. sc-2048).
In general terms: A western blot detects proteins with antibodies after separation by electrophoresis.

The test system of the next test is A549 and Calu-1 cells. The test can be described thus: Colony formation (clonogenic) assay, A549 and Calu-1. It is filed as cell-based, human. The note with it: p53+ A549 and p53-null Calu-1, 12-day experiment. The protocol: A549 and Calu-1 cells were plated at a concentration of 500 cells per well in 35 mm/6-well plates in 2 ml complete medium. The plates were incubated for 24 h stabilization and further incubated with a range of concentrations of fascaplysin and BPT for 24 h. Plates were then gently washed with PBS, replaced with fresh medium and incubated at 37 °C. After 10–12 days, cells were fixed in methanol:acetic acid (2 : 1) fixative for 10 min, washed, air dried and stained with 1% crystal violet. The colonies were evaluated by visual counts. The number of colonies in treated cultures was expressed as a percentage of the control cultures. All results represent means and standard deviations from at least three independent experiments.

The mark [3] stands for this setting: BNL SV A.8, concentration used in long-term survival assay (Fig. S3).

The structures appear in SMILES notation. Read-outs that look alike come from different tables or passages of the source.

Cdk6-cyclin D1, sequence (P24385 whole entry): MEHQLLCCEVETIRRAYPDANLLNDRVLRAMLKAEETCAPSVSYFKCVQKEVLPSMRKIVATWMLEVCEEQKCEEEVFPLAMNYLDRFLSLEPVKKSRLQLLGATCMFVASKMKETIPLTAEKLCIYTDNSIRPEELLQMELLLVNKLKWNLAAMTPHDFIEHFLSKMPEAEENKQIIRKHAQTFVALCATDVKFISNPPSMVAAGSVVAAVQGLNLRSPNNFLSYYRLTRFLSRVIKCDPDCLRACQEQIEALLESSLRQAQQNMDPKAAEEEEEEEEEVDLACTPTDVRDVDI
Cdk6-cyclin D1, sequence (Q00534 whole entry): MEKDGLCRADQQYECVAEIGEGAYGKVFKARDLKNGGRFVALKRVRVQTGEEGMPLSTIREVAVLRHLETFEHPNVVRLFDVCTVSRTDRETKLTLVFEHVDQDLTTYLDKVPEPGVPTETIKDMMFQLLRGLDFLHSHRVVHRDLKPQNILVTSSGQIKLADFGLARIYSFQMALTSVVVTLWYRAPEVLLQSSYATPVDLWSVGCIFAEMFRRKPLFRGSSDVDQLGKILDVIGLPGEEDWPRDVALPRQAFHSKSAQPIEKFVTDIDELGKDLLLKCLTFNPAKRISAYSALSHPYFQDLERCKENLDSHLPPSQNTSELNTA
Plk3, sequence (Q9H4B4 whole entry): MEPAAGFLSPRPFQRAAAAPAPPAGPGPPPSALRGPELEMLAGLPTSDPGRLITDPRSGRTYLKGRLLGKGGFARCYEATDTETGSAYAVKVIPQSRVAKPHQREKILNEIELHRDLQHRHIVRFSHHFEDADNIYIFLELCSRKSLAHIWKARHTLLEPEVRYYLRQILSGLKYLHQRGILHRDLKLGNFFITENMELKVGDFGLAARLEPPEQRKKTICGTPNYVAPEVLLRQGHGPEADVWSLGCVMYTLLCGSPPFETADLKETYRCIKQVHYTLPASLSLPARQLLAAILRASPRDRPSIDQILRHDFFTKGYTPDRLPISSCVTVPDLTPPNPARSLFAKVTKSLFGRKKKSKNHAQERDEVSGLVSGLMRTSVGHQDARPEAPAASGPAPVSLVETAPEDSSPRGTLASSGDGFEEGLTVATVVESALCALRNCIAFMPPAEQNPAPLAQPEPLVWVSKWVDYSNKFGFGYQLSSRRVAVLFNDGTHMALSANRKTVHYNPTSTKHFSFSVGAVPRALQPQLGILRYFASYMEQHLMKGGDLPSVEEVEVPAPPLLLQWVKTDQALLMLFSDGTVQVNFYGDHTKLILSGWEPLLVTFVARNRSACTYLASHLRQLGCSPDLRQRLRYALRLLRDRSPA

As for `O=C(c1ccccc1-c1ccccc1)N1CCc2c([nH]c3ccccc23)C1` [BPT, 2-(biphenyl-2-carbonyl)-2,3,4,9-tetrahydro-1H-pyrido[3,4-b]indole], the IC50 (usually the midpoint of a concentration-inhibition curve) on Cdk6-cyclin D1 is more than 10000 nM; on Plk3, more than 10000 nM; against PKCα it was more than 10000 nM; in test [1] (Mus musculus, 48 h, MTT, read-out: IC50 cell growth inhibition, BNL SV A.8) it was 750 nM; in test [1] (Mus musculus, BNL SV A.8, concentration used in long-term survival assay (Fig. S3), read-out: IC50) it was 600 nM. In test [1] (setting [3]), the IC30 (as a rule, the concentration at which the effect reaches the 30% level) was found to be 400 nM. Besides, the IC70 – broadly, the point of the concentration-response curve where the effect stands at 70% – in test [1] (setting [3]) was 900 nM. In addition, the IC20 (usually the point of the concentration-response curve where the effect stands at 20%) in test [1] (Mus musculus, BNL SV A.8, concentration used in long-term survival assay (Fig. S3)) was 250 nM. Moreover, the “phase of cell cycle block in Calu-1 cells” value with Calu-1 cells is given as “blocks only at the G0/G1 phase”. For the same compound, the “induction of p53” value in test [2] was “more than 10 fold”. The “levels of p21CIP1/WAF1 (p21)” value in test [2] was “increase”. In addition, the “levels of p27KIP1 (p27)” value in test [2] is recorded as “elevated”. Besides, in test [2] (versus untreated control), the “Cdk1 and cyclin B1 protein levels” value was “downregulated”. Besides, the colony formation efficiency entry in the test with A549 and Calu-1 cells is recorded as “significant reduction”.
